The source made the active and inactive calls. The calls are words filed in the database; no cut-off is given here.
Legend:
[1] = test system: Huh-7; experiment: Antiproliferative activity against human HuH7 cells after 72 hrs by CCK8 assay; type: functional
[2] = test system: K562; experiment: Antiproliferative activity against human K562 cells after 72 hrs by CCK8 assay; type: functional
[3] = target: Serine/threonine-protein kinase PLK2 (Homo sapiens, UniProt Q9NYY3); experiment: Inhibition human recombinant full length GST-tagged Plk2 expressed in baculovirus expression system after 1 hr by FRET-based Z'-Lyte assay
Serine/threonine-protein kinase PLK2, sequence (Q9NYY3 whole entry): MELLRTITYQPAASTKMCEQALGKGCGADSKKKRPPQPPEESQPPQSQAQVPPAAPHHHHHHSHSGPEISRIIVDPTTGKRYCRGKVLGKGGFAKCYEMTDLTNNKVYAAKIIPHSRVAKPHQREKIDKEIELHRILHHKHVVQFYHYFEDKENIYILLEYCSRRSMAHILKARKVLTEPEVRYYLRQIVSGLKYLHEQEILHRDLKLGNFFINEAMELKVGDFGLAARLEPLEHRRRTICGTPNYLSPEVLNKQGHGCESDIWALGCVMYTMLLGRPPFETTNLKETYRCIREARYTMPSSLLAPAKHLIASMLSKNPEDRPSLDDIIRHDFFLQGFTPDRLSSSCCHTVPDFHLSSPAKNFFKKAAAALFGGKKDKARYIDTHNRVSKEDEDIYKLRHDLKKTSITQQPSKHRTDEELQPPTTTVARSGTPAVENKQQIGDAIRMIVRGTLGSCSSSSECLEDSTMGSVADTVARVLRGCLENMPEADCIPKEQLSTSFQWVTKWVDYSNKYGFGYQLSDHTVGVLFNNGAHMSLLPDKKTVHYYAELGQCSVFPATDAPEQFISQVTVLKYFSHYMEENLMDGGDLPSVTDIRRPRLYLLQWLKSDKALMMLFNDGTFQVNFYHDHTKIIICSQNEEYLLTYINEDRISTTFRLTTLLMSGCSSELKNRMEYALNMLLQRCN

[4] = test system: MCF7; experiment: Antiproliferative activity against human MCF7 cells after 72 hrs by CCK8 assay; type: functional
[5] = target: Serine/threonine-protein kinase PLK3 (Homo sapiens, UniProt Q9H4B4); experiment: Inhibition human recombinant GST-tagged Plk3 catalytic domain (58 to 340 residues) expressed in baculovirus expression system after 1 hr by FRET-based Z'-Lyte assay
Serine/threonine-protein kinase PLK3, sequence (Q9H4B4 whole entry, the tested form may be a part): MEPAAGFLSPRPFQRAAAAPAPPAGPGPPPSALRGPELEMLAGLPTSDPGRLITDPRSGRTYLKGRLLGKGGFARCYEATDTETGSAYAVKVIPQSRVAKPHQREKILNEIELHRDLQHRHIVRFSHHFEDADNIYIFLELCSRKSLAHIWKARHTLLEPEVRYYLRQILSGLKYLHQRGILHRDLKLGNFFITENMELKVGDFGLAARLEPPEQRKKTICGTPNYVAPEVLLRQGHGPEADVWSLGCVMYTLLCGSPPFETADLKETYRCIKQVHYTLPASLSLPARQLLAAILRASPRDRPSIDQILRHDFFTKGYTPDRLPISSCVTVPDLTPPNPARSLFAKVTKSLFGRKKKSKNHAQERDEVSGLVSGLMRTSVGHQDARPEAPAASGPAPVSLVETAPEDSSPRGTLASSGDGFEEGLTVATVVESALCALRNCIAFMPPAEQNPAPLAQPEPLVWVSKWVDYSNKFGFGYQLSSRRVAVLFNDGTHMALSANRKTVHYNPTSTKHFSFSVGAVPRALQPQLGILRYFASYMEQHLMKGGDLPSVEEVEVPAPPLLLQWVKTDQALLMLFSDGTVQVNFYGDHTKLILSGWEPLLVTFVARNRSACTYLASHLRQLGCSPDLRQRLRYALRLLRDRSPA

[6] = test system: NCI-H1975; experiment: Antiproliferative activity against human NCI-H1975 cells after 72 hrs by CCK8 assay; type: functional
[7] = test system: A549; experiment: Antiproliferative activity against human A549 cells after 72 hrs by CCK8 assay; type: functional
[8] = test system: HeLa; experiment: Antiproliferative activity against human HeLa cells after 72 hrs by CCK8 assay; type: functional
[9] = target: Serine/threonine-protein kinase PLK1 (Homo sapiens, UniProt P53350); experiment: Inhibition human recombinant full length His-tagged Plk1 expressed in baculovirus expression system after 1 hr by FRET-based Z'-Lyte assay
Serine/threonine-protein kinase PLK1, sequence (P53350 whole entry): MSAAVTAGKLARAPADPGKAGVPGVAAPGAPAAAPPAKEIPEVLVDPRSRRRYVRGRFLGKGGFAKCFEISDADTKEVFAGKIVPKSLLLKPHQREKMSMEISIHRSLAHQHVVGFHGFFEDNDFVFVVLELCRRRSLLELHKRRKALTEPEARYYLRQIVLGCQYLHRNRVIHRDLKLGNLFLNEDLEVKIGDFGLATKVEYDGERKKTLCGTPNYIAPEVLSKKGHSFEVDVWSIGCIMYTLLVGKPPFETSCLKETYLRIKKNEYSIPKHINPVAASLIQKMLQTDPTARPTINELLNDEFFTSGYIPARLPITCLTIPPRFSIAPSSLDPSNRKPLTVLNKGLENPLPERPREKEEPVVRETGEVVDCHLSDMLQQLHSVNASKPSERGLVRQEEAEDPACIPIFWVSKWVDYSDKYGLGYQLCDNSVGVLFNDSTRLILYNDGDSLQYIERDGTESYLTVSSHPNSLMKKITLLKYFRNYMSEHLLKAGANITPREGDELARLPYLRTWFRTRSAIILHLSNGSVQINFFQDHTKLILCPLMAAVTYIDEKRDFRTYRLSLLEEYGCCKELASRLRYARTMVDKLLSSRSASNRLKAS

SMILES	GI50 ([1]; Huh-7, 72 h)	GI50 ([2]; K562, 72 h)	IC50 [3]	GI50 ([4]; MCF7, 72 h)	IC50 [5]	GI50 ([6]; NCI-H1975, 72 h)	GI50 ([7]; A549, 72 h)	GI50 [8]	GI50 [4]	GI50 [7]	GI50 [6]	GI50 [1]	IC50 [9]	GI50 [2]
CCNC(=O)c1ccc2c(ccn2-c2ncc3c(n2)N(c2ccn(C)n2)C(CC)C(=O)N3C)c1 (racemic)	20.3 µM	12.8 µM	0.243 µM	13.2 µM	> 10 µM	–	21.7 µM	11.1 µM	–	–	inactive	–	–	–
CCC1C(=O)N(C)c2cnc(-n3ccc4cc(F)ccc43)nc2N1c1ccn(C)n1 (racemic)	–	6.07 µM	1.5 µM	24.7 µM	> 10 µM	28.6 µM	–	inactive	–	inactive	–	inactive	> 10 µM	–
CCC1C(=O)N(C)c2cnc(-n3ccc4cc(C(=O)NC)ccc43)nc2N1c1ccn(C)n1 (racemic)	13.2 µM	13.3 µM	0.218 µM	35.4 µM	> 10 µM	35.7 µM	43.1 µM	6.33 µM	–	–	–	–	–	–
CCC1C(=O)N(C)c2cnc(-n3ccc4cc(C(=O)NCC(C)C)ccc43)nc2N1c1ccn(C)n1 (racemic)	5.07 µM	5.6 µM	0.159 µM	4.81 µM	> 10 µM	10.2 µM	19.2 µM	4.97 µM	–	–	–	–	–	–
CCC1C(=O)N(C)c2cnc(-n3ccc4cc(C(=O)NC(C)C)ccc43)nc2N1c1ccn(C)n1 (racemic)	6.74 µM	8.91 µM	0.124 µM	8.42 µM	> 10 µM	12.2 µM	22 µM	4.35 µM	–	–	–	–	–	–
CCC1C(=O)N(C)c2cnc(Nc3ccc(S(=O)(=O)NCC(C)C)cc3)nc2N1c1ccn(C)n1 (racemic)	8.52 µM	7.3 µM	0.311 µM	8.35 µM	–	15 µM	31.6 µM	5.31 µM	–	–	–	–	–	–
CCCCNC(=O)c1ccc2c(ccn2-c2ncc3c(n2)N(c2ccn(C)n2)C(CC)C(=O)N3C)c1 (racemic)	8.67 µM	14.1 µM	0.159 µM	8.99 µM	> 10 µM	12 µM	37.3 µM	4.26 µM	–	–	–	–	–	–
CCC1C(=O)N(C)c2cnc(-n3ccc4cc(C(N)=O)ccc43)nc2N1c1ccn(C)n1 (racemic)	–	31.3 µM	0.384 µM	–	> 10 µM	–	39.5 µM	27.4 µM	inactive	–	inactive	inactive	–	–
CC[C@@H]1C(=O)N(C)c2cnc(Nc3ccc(S(=O)(=O)NCCCO)cc3)nc2N1C1CCCC1	0.262 µM	0.331 µM	0.00816 µM	0.363 µM	–	2.14 µM	0.437 µM	0.357 µM	–	–	–	–	–	–
CCCNC(=O)c1ccc2c(ccn2-c2ncc3c(n2)N(c2ccn(C)n2)C(CC)C(=O)N3C)c1 (racemic)	7.28 µM	8.27 µM	0.207 µM	6.42 µM	> 10 µM	11 µM	–	6.16 µM	–	inactive	–	–	–	–
CCC1C(=O)N(C)c2cnc(Nc3ccc(S(N)(=O)=O)cc3)nc2N1c1ccn(C)n1 (racemic)	–	–	0.121 µM	36.6 µM	–	–	–	12.6 µM	–	inactive	inactive	inactive	–	inactive
CCCCNS(=O)(=O)c1ccc(Nc2ncc3c(n2)N(c2ccn(C)n2)C(CC)C(=O)N3C)cc1 (racemic)	3.75 µM	4.24 µM	0.191 µM	5.78 µM	–	4.12 µM	10.6 µM	4.32 µM	–	–	–	–	–	–
CCC1C(=O)N(C)c2cnc(Nc3ccc(S(=O)(=O)NC)cc3)nc2N1c1ccn(C)n1 (racemic)	11.9 µM	2.89 µM	0.0715 µM	3.75 µM	–	18.8 µM	12.6 µM	2.2 µM	–	–	–	–	–	–
CCC1C(=O)N(C)c2cnc(Nc3ccc(S(=O)(=O)NCCCO)cc3)nc2N1c1ccn(C)n1 (racemic)	–	13.4 µM	0.192 µM	21.6 µM	–	25.8 µM	48.9 µM	23.7 µM	–	–	–	inactive	–	–

Other lines, results leading:

GI50 ([1]; Huh-7, 72 h)	GI50 ([2]; K562, 72 h)	IC50 [3]	GI50 ([4]; MCF7, 72 h)	IC50 [5]	GI50 ([6]; NCI-H1975, 72 h)	GI50 ([7]; A549, 72 h)	GI50 [8]	GI50 [4]	GI50 [7]	GI50 [6]	GI50 [1]	IC50 [9]	GI50 [2]	SMILES
0.259 µM	0.414 µM	0.00706 µM	0.795 µM	> 20 µM	0.856 µM	0.67 µM	0.247 µM	–	–	–	–	–	–	CC[C@@H]1C(=O)N(C)c2cnc(-n3ccc4cc(C(=O)NC5CCCC5)ccc43)nc2N1C1CCCC1
16 µM	21.2 µM	0.969 µM	–	> 20 µM	46.5 µM	–	inactive	inactive	inactive	–	–	–	–	CC[C@@H]1C(=O)N(C)c2cnc(-n3ccc4cc(F)ccc43)nc2N1C1CCCC1
4.69 µM	6.91 µM	–	17.2 µM	> 20 µM	28.3 µM	57.5 µM	33.9 µM	–	–	–	–	–	–	CC[C@@H]1C(=O)N(C)c2cnc(-n3ccc4ccccc43)nc2N1C1CCCC1
0.596 µM	0.428 µM	0.00488 µM	0.784 µM	–	0.882 µM	1.12 µM	0.418 µM	–	–	–	–	–	–	CCNC(=O)c1ccc2c(ccn2-c2ncc3c(n2)N(C2CCCC2)[C@H](CC)C(=O)N3C)c1
0.278 µM	0.548 µM	0.0178 µM	0.344 µM	–	2.1 µM	0.563 µM	0.459 µM	–	–	–	–	–	–	CCCNS(=O)(=O)c1ccc(Nc2ncc3c(n2)N(C2CCCC2)[C@H](CC)C(=O)N3C)cc1
1.3 µM	0.47 µM	0.0102 µM	0.394 µM	–	5.29 µM	3.39 µM	0.317 µM	–	–	–	–	–	–	CC[C@@H]1C(=O)N(C)c2cnc(Nc3ccc(S(N)(=O)=O)cc3)nc2N1C1CCCC1
0.683 µM	0.673 µM	0.0165 µM	0.634 µM	–	0.99 µM	1.16 µM	0.346 µM	–	–	–	–	–	–	CCCCNC(=O)c1ccc2c(ccn2-c2ncc3c(n2)N(C2CCCC2)[C@H](CC)C(=O)N3C)c1
